How the values were obtained:
B16-F10 cells [1] = test: Flow cytometry, surface MHC-I on CRISPR-edited cells with IFNγ; assay type: cell-based, murine
Protocol: Parental, CRISPR-edited or biologic-overexpressed tumour cells were seeded in a cell density of 60,000 (B16-F10), 150,000 (CT26), 100,000 (A375), or 200,000 (A549) per well in 12-well plate filled with 0.8 ml culture media + 10% FBS. After overnight incubation, the culture media were replaced with 1 ml fresh media supplemented with 10% FBS and the designated concentration of the recombinant mouse IFNγ (R&D Systems, #485-MI-100) or recombinant human IFNγ (R&D Systems, #285-IF-100). […]
(§1) Cells were dissociated from the wells with 0.25% trypsin (Gibco, 25200056). After rinsing with 0.5 ml PBS, each sample was stained with the LIVE/DEAD Fixable Aqua dead cell staining solution (Life Technologies, L34957) in 100 µl PBS (1:1000 dilution) for 15 min at 4 °C. After rinsing with 2 × 0.5 ml PBS, each sample was stained with the corresponding primary antibody-dye conjugates diluted in 100 µl Pharmingen stain buffer (BD Biosciences, #554657). After 1 h staining at 4 °C, the cells were rinsed with 2 × 2 ml Pharmingen stain buffer and fixed with 4.21% (w/w) formaldehyde (BD Biosciences, #554655). Cells were analyzed on LSRFortessa X-20 (BD Biosciences) with appropiate fluorescence compensation. The data were analyzed using FlowJo. Cells were gated based on FSC and SSC. Single cells were selected using FSC-A and FSC-H and viable cells were selected using LIVE/DEAD signal. Primary antibodies used were: H-2K^b/H-2D^b (FITC, Biolegend, #114606, 1:50 dilution), HLA-A,B,C (FITC, Biolegend, #311404, 1:100 dilution), mouse IFNGR1 (PE, Invitrogen, #12-1191-82, 1:50 dilution), human IFNGR1 (PE, Miltenyi, #130-125-851, 1:50 dilution), mouse IL1R1 (APC, Biolegend, #113509, 1:20 dilution), mouse IL6R (APC, Biolegend, #115812, 1:20 dilution), mouse IFNAR1 (APC, Biolegend, #127314, 1:20 dilution), and mouse GP130 (PE, Biolegend, #149404, 1:100 dilution).

B16-F10 cells [2] = test: Flow cytometry, surface IFNGR1 on CRISPR-edited cells; assay type: cell-based, murine; conditions: B16-F10, 24 h
Protocol: Parental, CRISPR-edited or biologic-overexpressed tumour cells were seeded in a cell density of 60,000 (B16-F10), 150,000 (CT26), 100,000 (A375), or 200,000 (A549) per well in 12-well plate filled with 0.8 ml culture media + 10% FBS. After overnight incubation, the culture media were replaced with 1 ml fresh media supplemented with 10% FBS and the designated concentration of the recombinant mouse IFNγ (R&D Systems, #485-MI-100) or recombinant human IFNγ (R&D Systems, #285-IF-100). The cells were stimulated with the cytokine for 24 h before they were harvested by trypsinization for flow cytometry, western blot, or qPCR analysis (6 h treatment).
as §1

IFNγ
IFNγ concentration needed by parental and control cells for response comparable to Stub1-null cells (B16-F10 cells [1]; B16-F10 (Fig. 1b, e)): at least tenfold higher concentration of IFNγ
MHC-I relative abundance compared to parental (B16-F10 cells [1]; Parental, 0.10 ng ml-1, 24 h): 1.00
MHC-I relative abundance compared to parental (B16-F10 cells [1]; Parental, 0.10 ng ml-1, 48 h): 1.00
Surface MHC-I (B16-F10 cells [1]; Stub1-null vs parental and control B16-F10): significantly higher, IFNγ-dependent, MHC-I on cell surface
MHC-I relative abundance compared to parental (B16-F10 cells [1]; clone 1A12 (gStub1 #2), 0.10 ng ml-1, 24 h): 3.60
MHC-I relative abundance compared to parental (B16-F10 cells [1]; clone 1A12 (gStub1 #2), 0.10 ng ml-1, 48 h): 11.41
MHC-I relative abundance compared to parental (B16-F10 cells [1]; clone 1B9, 0.10 ng ml-1, 24 h): 1.36
MHC-I relative abundance compared to parental (B16-F10 cells [1]; clone 1B9, 0.10 ng ml-1, 48 h): 1.43
MHC-I relative abundance compared to parental (B16-F10 cells [1]; clone 1D8, 0.10 ng ml-1, 24 h): 4.16
MHC-I relative abundance compared to parental (B16-F10 cells [1]; clone 1D8, 0.10 ng ml-1, 48 h): 12.70
MHC-I relative abundance compared to parental (B16-F10 cells [1]; clone 1D10 (gStub1 #1), 0.10 ng ml-1, 24 h): 4.42
MHC-I relative abundance compared to parental (B16-F10 cells [1]; clone 1D10 (gStub1 #1), 0.10 ng ml-1, 48 h): 13.18
MHC-I relative abundance compared to parental (B16-F10 cells [1]; clone 1E6, 0.10 ng ml-1, 24 h): 9.22
MHC-I relative abundance compared to parental (B16-F10 cells [1]; clone 1E6, 0.10 ng ml-1, 48 h): 24.23
MHC-I relative abundance compared to parental (B16-F10 cells [1]; clone 1G6, 0.10 ng ml-1, 24 h): 4.19
MHC-I relative abundance compared to parental (B16-F10 cells [1]; clone 1G6, 0.10 ng ml-1, 48 h): 12.85
MHC-I relative abundance compared to parental (B16-F10 cells [1]; clone 1G10, 0.10 ng ml-1, 24 h): 1.08
MHC-I relative abundance compared to parental (B16-F10 cells [1]; clone 1G10, 0.10 ng ml-1, 48 h): 0.94
MHC-I relative abundance compared to parental (B16-F10 cells [1]; clone 1H7, 0.10 ng ml-1, 24 h): 2.27
MHC-I relative abundance compared to parental (B16-F10 cells [1]; clone 1H7, 0.10 ng ml-1, 48 h): 5.53
MHC-I relative abundance compared to parental (B16-F10 cells [1]; clone 2B11, 0.10 ng ml-1, 24 h): 2.67
MHC-I relative abundance compared to parental (B16-F10 cells [1]; clone 2B11, 0.10 ng ml-1, 48 h): 9.24
MHC-I relative abundance compared to parental (B16-F10 cells [1]; clone 2E8 (gControl), 0.10 ng ml-1, 24 h): 0.75
MHC-I relative abundance compared to parental (B16-F10 cells [1]; clone 2E8 (gControl), 0.10 ng ml-1, 48 h): 0.77
MHC-I relative abundance compared to parental (B16-F10 cells [1]; clone 2E9, 0.10 ng ml-1, 24 h): 4.10
MHC-I relative abundance compared to parental (B16-F10 cells [1]; clone 2E9, 0.10 ng ml-1, 48 h): 11.55
MHC-I relative abundance compared to parental (B16-F10 cells [1]; clone 2F7, 0.10 ng ml-1, 24 h): 1.00
MHC-I relative abundance compared to parental (B16-F10 cells [1]; clone 2F7, 0.10 ng ml-1, 48 h): 1.01
MHC-I relative abundance compared to parental (B16-F10 cells [1]; clone 2H3, 0.10 ng ml-1, 24 h): 3.56
MHC-I relative abundance compared to parental (B16-F10 cells [1]; clone 2H3, 0.10 ng ml-1, 48 h): 12.42
Cell surface IFNGR1 with increasing IFNγ (B16-F10 cells [2]): declined with increasing IFNγ concentration

Reference: publication PMC9388626, “STUB1 is an intracellular checkpoint for interferon gamma sensing” (Scientific Reports, 2022)
